Earlier results in US20070148100A1 (priority 2005, published 2007).

Experiments:
5-HT1A receptor = target: T1, 5-HT1A receptor (Homo sapiens, UniProt P08908)
T1 sequence (P08908 1-422): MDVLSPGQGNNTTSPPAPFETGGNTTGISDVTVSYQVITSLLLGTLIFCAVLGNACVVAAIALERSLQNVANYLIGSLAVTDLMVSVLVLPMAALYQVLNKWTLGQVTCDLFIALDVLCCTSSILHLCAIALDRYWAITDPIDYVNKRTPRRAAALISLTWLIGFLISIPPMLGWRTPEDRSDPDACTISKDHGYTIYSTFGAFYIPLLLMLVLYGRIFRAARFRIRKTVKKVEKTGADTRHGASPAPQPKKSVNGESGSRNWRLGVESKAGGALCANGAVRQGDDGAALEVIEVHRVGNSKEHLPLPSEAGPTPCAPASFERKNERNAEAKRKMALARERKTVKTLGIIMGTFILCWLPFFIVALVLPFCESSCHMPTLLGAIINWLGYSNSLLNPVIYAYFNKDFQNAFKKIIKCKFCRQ

5-HT2A receptor = 5-HT2A receptor (Homo sapiens, UniProt P28223)
5-HT2A receptor, sequence (P28223 whole entry): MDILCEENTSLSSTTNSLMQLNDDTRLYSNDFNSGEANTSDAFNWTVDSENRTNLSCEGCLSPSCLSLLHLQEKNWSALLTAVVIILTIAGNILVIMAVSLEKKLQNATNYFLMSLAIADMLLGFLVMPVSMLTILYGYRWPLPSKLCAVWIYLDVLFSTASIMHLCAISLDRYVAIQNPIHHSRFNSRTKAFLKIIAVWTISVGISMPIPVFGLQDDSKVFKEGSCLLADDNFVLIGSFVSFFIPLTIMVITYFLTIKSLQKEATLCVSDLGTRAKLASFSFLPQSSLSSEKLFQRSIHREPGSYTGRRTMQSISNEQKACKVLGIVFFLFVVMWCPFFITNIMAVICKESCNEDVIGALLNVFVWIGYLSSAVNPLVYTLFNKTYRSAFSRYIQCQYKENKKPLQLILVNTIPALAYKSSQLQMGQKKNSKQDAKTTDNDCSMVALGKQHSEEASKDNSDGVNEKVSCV

[1] = test system: alpha-adrenergic receptors
[2] = test system: cholinergic muscarinic receptors

## O=C1CCc2ccc(OCCCCN3CCN(c4cccc(Cl)c4Cl)CC3)cc2N1 [Aripiprazole, 7-[4-[4-(2,3-dichlorophenyl)-1-piperazinyl]butoxy]-3,4-dihydrocarbostyril]
5-HT1A receptor
  activity at the 5-HT1A receptor: partial agonist
5-HT2A receptor
  activity at the 5-HT2A receptor: antagonist profile
Histamine receptors
  affinity for histamine receptors: moderate affinity
[1]
  affinity for alpha-adrenergic receptors: moderate affinity
[2]
  affinity for cholinergic muscarinic receptors: no appreciable affinity
In vivo
  elimination half-life: approximately 75 hours
  kinetics (linearity): linear kinetics
Oral tablets
  bioavailability: about 90%
